# Test results: patent US12077503B2, “Substituted cyclic amides and their use as herbicides” (FMC CORPORATION, priority 2015, dated 2024)
# Read-outs that look alike come from different tables or passages of the source.
# How the values were obtained:
# Format in all cases: in vivo
# [1] = tested on: giant foxtail (Setaria faberii); assay: Test A postemergence; conditions: Setaria faberi, post-emergence, 240 h; for pest or weed control at 125 g/ha: 125 g ai/ha, read-out: Foxtail, Giant plant response rating (0 to 100 scale); for pest or weed control at 500 g/ha: 500 g ai/ha
# Outline: (§1)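 Preemergence directed soil spray on seeded pots, or postemergence application to plants 2–10 cm, one- to two-leaf. Solvent mixture non-phytotoxic, with surfactant. Scored ~10 d later, visually, 0–100 vs untreated.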
# [2] = tested on: ryegrass, Italian (Italian ryegrass, Lolium multiflorum); assay: Test A postemergence; conditions: Lolium multiflorum, post-emergence, 240 h; for pest or weed control at 125 g/ha: 125 g ai/ha, read-out: Ryegrass, Italian plant response rating (0 to 100 scale); for pest or weed control at 500 g/ha: 500 g ai/ha
# Outline: as §1
# [3] = tested on: wheat (Triticum aestivum); assay: Test A postemergence; conditions: Triticum aestivum, post-emergence, 240 h; for plant injury at 125 g/ha: 125 g ai/ha, read-out: Wheat plant response rating (0 to 100 scale); for plant injury at 500 g/ha: 500 g ai/ha
# Outline: as §1
# [4] = tested on: Galium (catchweed bedstraw, Galium aparine); assay: Test A postemergence; conditions: Galium, post-emergence, 240 h; for pest or weed control at 125 g/ha: 125 g ai/ha, read-out: Galium plant response rating (0 to 100 scale); for pest or weed control at 500 g/ha: 500 g ai/ha
# Outline: as §1
# corn (Zea mays) = assay: Test A postemergence; conditions: Zea mays, post-emergence, 240 h; for plant injury at 125 g/ha: 125 g ai/ha, read-out: Corn plant response rating (0 to 100 scale)
# Outline: as §1
# [5] = tested on: blackgrass (Alopecurus myosuroides); assay: Test A postemergence; conditions: Alopecurus myosuroides, post-emergence, 240 h; for pest or weed control at 125 g/ha: 125 g ai/ha, read-out: Blackgrass plant response rating (0 to 100 scale); for pest or weed control at 500 g/ha: 500 g ai/ha
# Outline: as §1
# [6] = tested on: pigweed (Amaranthus retroflexus); assay: Test A postemergence; conditions: Amaranthus retroflexus, post-emergence, 240 h; for pest or weed control at 125 g/ha: 125 g ai/ha, read-out: Pigweed plant response rating (0 to 100 scale); for pest or weed control at 500 g/ha: 500 g ai/ha
# Outline: as §1
# Kochia (Kochia scoparia) [7] = assay: Test A postemergence; conditions: Bassia scoparia, post-emergence, 240 h; for pest or weed control at 125 g/ha: 125 g ai/ha, read-out: Kochia plant response rating (0 to 100 scale); for pest or weed control at 500 g/ha: 500 g ai/ha
# Outline: as §1
# [8] = tested on: ragweed (common ragweed, Ambrosia elatior); assay: Test A postemergence; conditions: Ambrosia artemisiifolia, post-emergence, 240 h; for pest or weed control at 125 g/ha: 125 g ai/ha, read-out: Ragweed plant response rating (0 to 100 scale); for pest or weed control at 500 g/ha: 500 g ai/ha
# Outline: as §1
# Kochia (Kochia scoparia) [9] = assay: Test A preemergence; conditions: Bassia scoparia, pre-emergence, 240 h; for pest or weed control at 125 g/ha: 125 g ai/ha; for pest or weed control at 500 g/ha: 500 g ai/ha
# Outline: as §1
# [10] = tested on: ducksalad (Heteranthera limosa); assay: Test B flooded paddy test; conditions: Heteranthera limosa, 250 g ai/ha, Flood; 0 to 100 scale where 0 is no effect and 100 is complete control; read-out: Ducksalad plant response rating
# Outline: (§2)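 Flooding to 3 cm over soil accompanied treatment, which consisted of adding compound to the standing water around 2-leaf plants; depth was then maintained. Visual assessment versus controls followed at 13 to 15 d (scale 0–100, 0 meaning no effect).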
# [11] = tested on: sedge, umbrella (small-flower umbrella sedge, Cyperus difformis); assay: Test B flooded paddy test; conditions: Cyperus difformis, 250 g ai/ha, Flood
# Outline: as §2
# [12] = tested on: barnyardgrass (Echinochloa crus-galli); assay: Test B flooded paddy test; conditions: Echinochloa crus-galli, 250 g ai/ha, Flood; 0 to 100 scale where 0 is no effect and 100 is complete control; read-out: Barnyardgrass plant response rating
# Outline: as §2
# rice (Oryra sativa) = assay: Test B flooded paddy test; conditions: Oryza sativa, 250 g ai/ha, Flood; 0 to 100 scale where 0 is no effect and 100 is complete control; read-out: Rice plant response rating
# Outline: as §2
# [13] = postemergence, visual injury vs untreated controls after approx. 10 d, 0 = no effect, 100 = complete control
# [14] = preemergence, 0 to 100 scale where 0 is no effect and 100 is complete control, read-out: Kochia plant response rating
# [15] = Postemergence, visual rating about 10 d after treatment
smiles,measurement,setting,value
COc1cc(C(F)(F)F)ccc1[C@H]1CNC(=O)[C@@H]1C(=O)Nc1cccc(F)c1F [Compound 1203],pest or weed control at 125 g/ha,[1]; [13],90%
same,pest or weed control at 500 g/ha,"[1]; postemergence, 0 to 100 scale, 0 is no effect, 100 is complete control, read-out: Foxtail, Giant plant response rating",90%
same,pest or weed control at 125 g/ha,[2]; [13],0%
same,pest or weed control at 500 g/ha,"[2]; postemergence, 0 to 100 scale, 0 is no effect, 100 is complete control, read-out: Ryegrass, Italian plant response rating",0%
same,plant injury at 125 g/ha,[3]; [13],0%
same,plant injury at 500 g/ha,"[3]; postemergence, 0 to 100 scale, 0 is no effect, 100 is complete control, read-out: Wheat plant response rating",50%
same,pest or weed control at 125 g/ha,[4]; [13],50%
same,pest or weed control at 500 g/ha,"[4]; postemergence, 0 to 100 scale, 0 is no effect, 100 is complete control, read-out: Galium plant response rating",60%
same,plant injury at 125 g/ha,corn (Zea mays); [13],40%
same,plant injury at 500 g/ha,"corn (Zea mays); 500 g ai/ha, postemergence, 0 to 100 scale, 0 is no effect, 100 is complete control, read-out: Corn plant response rating",70%
same,pest or weed control at 125 g/ha,[5]; [13],20%
same,pest or weed control at 500 g/ha,"[5]; postemergence, 0 to 100 scale, 0 is no effect, 100 is complete control, read-out: Blackgrass plant response rating",60%
same,pest or weed control at 125 g/ha,[6]; [13],0%
same,pest or weed control at 500 g/ha,"[6]; postemergence, 0 to 100 scale, 0 is no effect, 100 is complete control, read-out: Pigweed plant response rating",20%
same,pest or weed control at 125 g/ha,Kochia (Kochia scoparia) [7]; [13],40%
same,pest or weed control at 500 g/ha,"Kochia (Kochia scoparia) [7]; postemergence, 0 to 100 scale, 0 is no effect, 100 is complete control, read-out: Kochia plant response rating",60%
same,pest or weed control at 125 g/ha,[8]; [13],20%
same,pest or weed control at 500 g/ha,"[8]; postemergence, 0 to 100 scale, 0 is no effect, 100 is complete control, read-out: Ragweed plant response rating",30%
same,pest or weed control at 125 g/ha,"Kochia (Kochia scoparia) [9]; preemergence, visual injury rating, 0 to 100 scale where 0 is no effect and 100 is complete control, approximately 10 d, read-out: Kochia plant response rating",20%
same,pest or weed control at 500 g/ha,Kochia (Kochia scoparia) [9]; [14],50%
same,pest or weed control at 250 g/ha,[10],100%
same,pest or weed control at 250 g/ha,"[11]; 0 to 100 scale where 0 is no effect and 100 is complete control, read-out: Sedge, Umbrella plant response rating",0%
same,pest or weed control at 250 g/ha,[12],30%
same,pest or weed control at 250 g/ha,rice (Oryra sativa),0%
CSc1ccccc1NC(=O)[C@H]1C(=O)N(C)C[C@@H]1c1ccc(F)c(C)c1 [Compound 1312],pest or weed control at 125 g/ha,[1]; [15],90%
same,pest or weed control at 500 g/ha,"[1]; Postemergence, visual injury, 0 to 100 scale (0 no effect, 100 complete control), approx. 10 d, read-out: Plant response rating, Foxtail, Giant",90%
same,pest or weed control at 125 g/ha,[2]; [15],30%
same,pest or weed control at 500 g/ha,"[2]; Postemergence, visual injury, 0 to 100 scale (0 no effect, 100 complete control), approx. 10 d, read-out: Plant response rating, Ryegrass, Italian",50%
same,plant injury at 125 g/ha,[3]; [15],30%
same,plant injury at 500 g/ha,"[3]; Postemergence, visual injury, 0 to 100 scale (0 no effect, 100 complete control), approx. 10 d, read-out: Plant response rating, Wheat",80%
same,pest or weed control at 125 g/ha,[4]; [15],50%
same,pest or weed control at 500 g/ha,"[4]; Postemergence, visual injury, 0 to 100 scale (0 no effect, 100 complete control), approx. 10 d, read-out: Plant response rating, Galium",60%
same,plant injury at 125 g/ha,corn (Zea mays); [15],40%
same,"Corn plant response rating (crop injury, 0 = no effect, 100 = complete kill) at 500 g/ha","corn (Zea mays); Postemergence, 500 g ai/ha, visual injury, 0 to 100 scale (0 no effect, 100 complete control), approx. 10 d",90%
same,pest or weed control at 125 g/ha,[5]; [15],50%
same,pest or weed control at 500 g/ha,"[5]; Postemergence, visual injury, 0 to 100 scale (0 no effect, 100 complete control), approx. 10 d, read-out: Plant response rating, Blackgrass",70%
same,pest or weed control at 125 g/ha,[6]; [15],0%
same,pest or weed control at 500 g/ha,"[6]; Postemergence, visual injury, 0 to 100 scale (0 no effect, 100 complete control), approx. 10 d, read-out: Plant response rating, Pigweed",40%
same,pest or weed control at 125 g/ha,Kochia (Kochia scoparia) [7]; [15],50%
same,pest or weed control at 500 g/ha,"Kochia (Kochia scoparia) [7]; Postemergence, visual injury, 0 to 100 scale (0 no effect, 100 complete control), approx. 10 d, read-out: Plant response rating, Kochia",70%
same,pest or weed control at 125 g/ha,[8]; [15],0%
same,pest or weed control at 500 g/ha,"[8]; Postemergence, visual injury, 0 to 100 scale (0 no effect, 100 complete control), approx. 10 d, read-out: Plant response rating, Ragweed",70%
same,pest or weed control at 500 g/ha,Kochia (Kochia scoparia) [9]; [14],80%
same,pest or weed control at 125 g/ha,"Kochia (Kochia scoparia) [9]; Preemergence, 0 to 100 scale (0 no effect, 100 complete control), read-out: Plant response rating, Kochia",50%
same,pest or weed control at 250 g/ha,[10],100%
same,pest or weed control at 250 g/ha,"[11]; 360 h, visually evaluated after 13 to 15 d, read-out: Plant response rating, Sedge, Umbrella (0 to 100 scale where 0 is no effect and 100 is complete control)",0%
same,pest or weed control at 250 g/ha,[12],40%
same,pest or weed control at 250 g/ha,rice (Oryra sativa),0%
